What was measured:
Type in all cases: cell-based
[1] = tested on: Candida albicans; test: Preservative challenge test in cleanser base, plate count; settings: inoculum about 1×10^5 to 1×10^6 cfu/mL, about 22° C.; for Day-7 Plate Count, CA: 7 days after challenge; for Day-14 Plate Count, CA: 14 days after challenge, TN = too numerous to count
Procedure: (§1) Several 200-gram samples of a cleanser base were admixed with a variety of preservative compositions, and challenged with selected bacteria and fungi (Escherichia coli, Pseudomonas aeruginosa, Staphylococcus aureus, Aspergillus niger, and Candida albicans) according to the following procedure:
(§2) About 0.5 mL of an aqueous suspension containing about 1×10^6 to about 2×10^7 colony forming units-per-milliliter (cfu/mL) of Aspergillus niger in a pH 7.2 phosphate buffer was transferred to a tube containing about 9.5 mL of a sample of a cleanser base composition to provide an inoculum level of about 1×10^5 to about 1×10^6 cfu/mL. The same procedure was used to challenge samples of the cleanser base with Candida albicans and with a mixed culture of Escherichia coli, Pseudomonas aeruginosa, and Staphylococcus aureus, at about the same inoculum levels. The challenged samples were stored at an ambient room temperature of about 22° C. At 7 days and 14 days after challenge, aliquots from each sample were diluted according to the following procedure: about 1 mL of each challenged sample was aseptically transferred into a tube containing about 9 mL of Dey/Engley (D/E) neutralizing broth with thorough mixing to provide a dilution ratio of about 1:10. About […] of each of the 1:10 diluted samples was then aseptically transferred into separate tubes, each tube containing about 9 mL of sterile buffered saline solution, (3.5 g/L phosphoric acid in 0.9 wt. % NaCl solution, adjusted to pH 7.2 with 50 wt. % aqueous sodium hydroxide), with thorough mixing, to provide a dilution ratio of about 1:1000.
(§3) Finally, each of the 1:10 diluted samples and each of the 1:1000 diluted samples were plated according to the following procedure: about 1 mL of each of the diluted samples was plated with Letheen agar (bacteria samples) or Sabouraud dextrose agar (yeast and mold samples). The Letheen agar plates were incubated at 35±2° C. for about 48 hours (about 2 days) in an inverted position, and the resulting microbial colonies were counted. The Sabouraud dextrose agar plates were incubated at 25±2° C. for about 120 hours (about 5 days) in an upright position and the resulting microbial colonies were counted.
(§4) The formulations of the cleanser base and the D/E Neutralizing Broth used in these evaluations are provided in Table 1 and Table 2, respectively.

[2] = tested on: Pseudomonas aeruginosa; test: as above; settings: inoculum about 1×10^5 to 1×10^6 cfu/mL, about 22° C., TN = too numerous to count; for Day-7 Plate Count, PA: 7 days after challenge; for Day-14 Plate Count, PA: 14 days after challenge
Procedure: as §1, §2, §3, §4

[3] = tested on: Staphylococcus aureus; test: as above; settings: inoculum about 1×10^5 to 1×10^6 cfu/mL, about 22° C.; for Day-7 Plate Count, SA: 7 days after challenge; for Day-14 Plate Count, SA: 14 days after challenge
Procedure: as §1, §2, §3, §4

[4] = tested on: Escherichia coli; test: as above; settings: inoculum about 1×10^5 to 1×10^6 cfu/mL, about 22° C., TN = too numerous to count; for Day-7 Plate Count, EC: 7 days after challenge; for Day-14 Plate Count, EC: 14 days after challenge
Procedure: as §1, §2, §3, §4

[5] = tested on: Aspergillus niger; test: as above; settings: inoculum about 1×10^5 to 1×10^6 cfu/mL, about 22° C.; for Day-7 Plate Count, AN: 7 days after challenge; for Day-14 Plate Count, AN: 14 days after challenge
Procedure: as §1, §2, §3, §4

[6] = tested on: S. aureus 6538; test: Minimum Inhibitory Concentration (MIC) evaluation, broth dilution; settings: Mueller-Hinton broth, two-fold dilutions, about 35° C. for about 24 hours, visible growth
Procedure: (§5) In this evaluation, nutrient broth solutions were made with different concentrations of the test compounds, and then all the solutions were spiked with the same concentration of test organism. Growth was indicated by a solution becoming hazy after 24 hours of incubation time. The highest dilution without observable growth is the Minimal Inhibitory Concentration (MIC).
(§6) The following procedure was adopted from the Manual of Clinical Microbiology, 2nd Ed. published by the American Society for Microbiology, ISBN 0-914826-00-X.
(§7) Prepare and sterilize Mueller-Hinton Broth (MH broth) (Fluka) per the manufacturer's instructions (dissolve 23 grams in one liter water and autoclave at 121° C. for 15 minutes minimum).
(§8) The stock antimicrobial solution is diluted (in MH broth) to twice the highest final test concentration desired. Sterile 13×100 mm screw-capped culture tubes are used. Two-fold dilutions are made directly in the tubes. To the first tube is added 2 mL of the working solution of antimicrobial agent. To each remaining tube is added 1 mL of broth. Using aseptic technique, an amount of 1 mL is transferred from the first tube to the second tube and is thoroughly mixed. After thorough mixing, 1 mL is transferred from the second tube to the third tube. This process is repeated through the second to last tube, from which 1 mL is removed and discarded. The final tube receives no antimicrobial agent and serves as a growth control.
(§9) Buffered saline (3.5 g/L phosphoric acid in a 0.9% NaCl solution, pH adjusted to 7.2 with 50 wt. % aqueous NaOH, sterilized by autoclave).
(§10) The organisms are preferably lyophilized Microbiologics E^power E7 microorganisms (mean assay value of between 10 million and 100 million colony forming units or equivalent concentration). The final concentrations of the microorganism in the inoculum should be in the order of 10^6-10^7 cfu/mL.
(§11) 1. Allow unopened vial of microorganism pellets to equilibrate to room temperature.
(§12) 2. Warm 1 tube of 10 mL buffered saline per organism used to about 35-37° C.
(§13) 3. Using sterile forceps, transfer 2 pellets to the saline and return unused pellets to storage.
(§14) 4. Incubate the hydrated material at about 35-37° C. for about 30 minutes.
(§15) 5. Vortex the vials until homogeneous.
(§16) 6. Add 1.0 ml of the diluted culture suspension to each of the previously prepared tubes containing the preservative compositions. The final concentration of preservative is now one-half of the original concentration in each tube.
(§17) All tubes were incubated at about 35° C. for about 24 hours. The tubes were then examined for visible signs of bacterial growth.
(§18) The MIC values from Table 5 were then used to calculate the Fractional Inhibitory Concentration Index (FICI) (sometimes called the Synergy Index) of GCM and GCP versus the various individual test organisms using the following equation. FICI=(MICa/MICA)+(MICb/MICB)

[7] = tested on: P. aeruginosa 9027; test: as above; settings: Mueller-Hinton broth, two-fold dilutions, about 35° C. for about 24 hours, visible growth
Procedure: as §5, §6, §7, §8, §9, §10, §11, §12, §13, §14, §15, §16, §17, §18

[8] = tested on: A. niger 16404; test: as above; settings: Mueller-Hinton broth, two-fold dilutions, about 35° C. for about 24 hours, visible growth
Procedure: as §5, §6, §7, §8, §9, §10, §11, §12, §13, §14, §15, §16, §17, §18

SMILES | Day-7 Plate Count, CA [1] | Day-14 Plate Count, CA [1] | Day-7 Plate Count, PA [2] | Day-14 Plate Count, PA [2] | Day-7 Plate Count, SA [3] | Day-14 Plate Count, SA [3] | Day-7 Plate Count, EC [4] | Day-14 Plate Count, EC [4] | Day-7 Plate Count, AN [5] | Day-14 Plate Count, AN [5] | MIC Values, S. aureus [6] | MIC Values, P. aeruginosa [7] | MIC Values, A. niger [8]
Cn1sccc1=O [Ex. B, 2-methyl-4-isothiazolin-3-one] | 10500 cfu | 15000 cfu | 115 cfu | <10 cfu | 215 cfu | 6500 cfu | 155 cfu | 10 cfu | 1000 cfu | 500 cfu | – | – | –
CCCCCCCC(=O)OCC(O)CO (centres unmarked) [Ex. C, glyceryl caprylate] | 500 cfu | 485 cfu | 7500 cfu | 117500 cfu | <10 cfu | 1000 cfu | 15 cfu | 10 cfu | 1000 cfu | 280 cfu | – | – | –
OCCc1ccccc1 [Ex. D, phenethyl alcohol] | 91000 cfu | 2000 cfu | 10 cfu | 1000 cfu | 7500 cfu | 1000 cfu | 380 cfu | 1000 cfu | 25 cfu | <10 cfu | – | – | –
O=C([O-])c1ccccc1.[Na+] [Ex. E, sodium benzoate] | 336500 cfu | – | – | – | 9000 cfu | 500 cfu | – | – | 1500 cfu | 3500 cfu | – | – | –
CCCCCCCC(=O)OCC(O)CO (centres unmarked) [GC, glyceryl caprylate] | – | – | – | – | – | – | – | – | – | – | 1.0% | 1.0% | 2.0%
Cn1sccc1=O [MI, 2-methyl-4-isothiazolin-3-one] | – | – | – | – | – | – | – | – | – | – | 0.1% | 0.008% | 0.1%
OCCc1ccccc1 [PEA, phenethyl alcohol] | – | – | – | – | – | – | – | – | – | – | 0.9% | 0.9% | 1.0%

Reference: patent US8367079B2, “Liquid preservative compositions” (Rhodia Operations, priority 2008, dated 2013)
